# In patent US5929039A, “Method for treating cardiac dysfunction and pharmaceutical compositions useful therefor” (Baker Medical Research Institute, priority 1993, dated 1999):
# Where two headings read alike, the source gives them in different places.
# Columns and labels:
# [1] = system: [3H]-labelled inositol phosphate accumulation; experiment: [3H]-labelled inositol phosphate accumulation in isolated perfused rat hearts under ischaemia and post-ischaemic reperfusion; settings: for average inhibition of [3H]-labelled inositol phosphate accumulation: vs 2 min post-ischaemic reperfusion without neomycin
# Procedure: (§1) Adult male sprague dawley rats 250-300 g were used. Where indicated, rats were treated with reserpine (5 mg/kg I.P. for 18 hrs prior to killing) to deplete endogenous noradrenaline stores.. Rats were heparinized 1 U/g I.P. 30 minutes prior to killing by decapitation. Hearts were rapidly excised and immediately chilled in ice-cold saline. Under ice-cold solution, hearts were cannulated via the ascending aorta as described by Langendorff and perfused retrogradely at a rate of 5 ml/min with HEPES-buffered Krebs solution equilibrated with 5%CO2 -95%O2 at 37° C. Initial perfusion was in a non-recirculating manner to remove internal blood. Hearts were allowed to warm up gradually and, when free of internal blood, transferred to a 37° C. water-jacketed organ bath containing carbogenated Krebs medium, and perfusion continued in a recirculating manner. Following a 15 minute equilibration period, hearts were labelled with [^3 H]-inositol, 2 μCi/ml for 2 h. Hearts were monitored throughout the labelling period for strong rhythmic beating.
# (§2) Following labelling, the [^3 H]-inositol-containing medium was removed, and replaced with Krebs medium containing propranolol (10^-6 M) and lithium chloride (50 mM) to block β-adrenergic receptors and to inhibit InsP metabolism by InsP 1'-phosphatase respectively (20). Hearts were perfused with propranolol, LiCi solution for 10 minutes prior to ischaemia. Antagonists, when administered, were included in this 10 minute preincubation. Normothermic global ischaemia was induced by terminating perfusion for various times up to 30 minutes. Reperfusion was examined following a 20 minute ischaemic period by resuming perfusion at 5 ml/min. Reactions were terminated by freezing hearts in liquid N2 following excision at the atrioventricular junction. Frozen ventricles were weighed and inositol phosphates extracted as described below.
# (§3) Inositol phosphates were extracted from ventricle samples in 3.5 ml ice-cold 5% trichloroacetic acid (TCA), 2.5 mM EDTA, 5 mM phytate solution, as described previously (21). Briefly, ventricles were homogenised with two 10 second passes of a "Polytron" homogenizer separated by 15 second periods on ice. Samples were homogenised further using a Potter-Elvejheim homogeniser followed by brief sonication. Homogenised samples were centrifuged (5000 rpm, 10 min, 4° C.) to remove TCA insoluble material. Supernatants were collected, and the remaining pellet re-extracted in 1.5 ml TCA, EDTA, phytate. Supernatants were pooled and freon, tri-n-ocylamine (1:1 v/v 0.75 ml:1 ml TCA solution) was added, mixed thoroughly, and phases separated by low speed centrifugation (2000 rpm, 10 min 4° C.). The resultant aqueous phase, containing inositol phosphates was collected and treated with proteinase K (50 μg/ml, 2 hr, 50° C.). This process was necessary to preserve the chromatography column. Treated samples were passed through a 1 ml Dowex-50 column (4% cross-linked 4-400 mesh size) and eluted with 1 ml water (22). Urea (0.05 M final) was added (23) and samples lyophilized prior to high performance liquid chromatography (HPLC) analysis. Recovery of inositol phosphates using this method was greater than 95% for each isomer, as estimated by addition of [^3 H]-labelled standards to extractions of unlabelled hearts.
# (§4) Inositol phosphates were separated by an anion-exchange HPLC system using a Whatman Partisil 10μ SAX column in a Waters Radial Compression Unit, employing a complex ammonium phosphate gradient, pH 3.8 from 0-2 M as described previously (24). Inositol phosphates were detected and quantitated using an on-line […] (model CR, Radiomatic Instruments) All peaks were identified by comparison with commercial standards. Nucleotide standards AMP, ADP, and ATP were run with samples to assess column performance.
# (§5) Values presented are mean ±SEM, for n=4 unless otherwise stated. Statistical analysis of results involved Students' unpaired "t-test" for all InsP data.
# [2] = system: hearts from reserpinized rats; experiment: Arrhythmic effect of thrombin under reperfusion conditions, perfused hearts from reserpinized rats; set-up: species or system rat; settings: for VF% / VT%: n 9
# Procedure: (§6) A model of in situ perfused rat hearts subjected to 20 minutes coronary artery occlusion to induce ischaemia, followed by reperfusion was used to investigate reperfusion-induced arrhythmias.
# (§7) Rats (250-300 g) were anaesthetised (pentobarbitone 60 mg/kg, I.P.) and heparinised (200 U/rat I.V.) The thorax was then opened and a metal cannula (ID 1 mm) inserted and tied into the ascending aorta, to commence Langendorff perfusion in situ (31). The interval from opening the chest to commencing heart perfusion was between 50 and 70 seconds. The perfusate was Krebs buffer, with coronary flow controlled by a Ismatac peristaltic pump at a rate of 5 ml/g heart weight/min for the non-ischaemic perfusion. At this flow rate the coronary perfusion pressure was between 32-38 mmHg, measured by pressure transducer (Gould Statham model p23) connected to the sidearm of the perfusion line. Following aortic cancellation, pulmonary vessels were tied off. In some preparations, ventricular pressure was measured by inserting a Millar micro-tip transducer catheter into the left ventricular cavity via the apex. All parameters--coronary perfusion pressure, ventricular pressure, and epicardial ECG, were constantly recorded on a Grass model 7 polygraph. Two hearts were perfused and simultaneously studied.
# (§8) A silk suture (4.0) was positioned loosely around the left coronary artery 2-3 mm from its origin. Two silk releasing rings were placed around the suture for subsequent release of occlusion. Successful occlusion of the artery, inducing regional ischaemia, was indicated by increases in coronary perfusion pressure of at least 30%. Perfusion pressure was adjusted to non-ischaemic perfusion levels during the ischaemic period.
# (§9) Drugs were added to the perfusion via a Harvard Model 22 pump. The drug flow was less than 1% of perfusion flow to ensure constant perfusate parameters. Unless mentioned otherwise, the drugs were present 10 minutes before, and during the entire ischaemic and reperfusion periods.
# (§10) Heart preparations were allowed to stabilise for at least 20 minutes prior to commencing studies. Following 10 minute drug incubation, the left coronary artery was ligated to induce local ischaemia, for a period of 20 minutes. At the end of this ischaemic period, the ligature was released and hearts perfused at pre-ischaemic flow for a period of 5 minutes. Ventricular arrhythmias, occurring during ischaemia or during the first 2 minutes of reperfusion were defined according to the Lambeth Conventions (32).
# The finding that thrombin directly stimulated release of Ins(1,4,5)P3 in heart indicates the possibility that thrombin might cause arrhythmias directly via this mechanism. Experiments were performed using hearts from reserpinized rats so that arrhythmic events initiated by noradrenaline were eliminated. Reperfusion arrhythmias were not observed in hearts from reserpinized animals. […] Furthermore, these arrhythmias were inhibited by gentamicin, indicating a relationship to release of Ins(1,4,5)P3 (Table 2).
# [3] = system: Ins(1,4,5)P3 release; experiment: Ins(1,4,5)P3 mass in isolated perfused rat hearts, 2 min reperfusion after 20 min global ischaemia (competitive binding assay); settings: for Ins(1,4,5)P3 mass: control 200 ± 18
# Procedure: as §1, §2, §3
# Mass of Ins(1,4,5)P3 was measured using a competitive binding assay (Amersham TRK 1000) essentially as described previously (26). Ventricle samples were prepared as described above except for the omission of [^3 H]-label during the 2 hr perfusion of hearts prior to ischaemia, and for the use of 5 mm ATP instead of phytate in the extraction procedure.
# Protein concentration was determined in aliquots of TCA pellet following InsP extraction using a modified Lowry method with Bovine Serum Albumin as a standard.
# as §5
# [4] = system: in situ perfused rat hearts; settings: for Reperfusion-induced arrhythmias VF % incidence / Reperfusion-induced arrhythmias VT % incidence: control 83
# Procedure: as §6, §7, §8, §9, §10
# Incidence of arrhythmias was analysed using a .chi.^2 test, with n≥8 for each group.
# [5] = system: PI-PLC kidney cy; settings: cytosolic enzyme; from the literature (35); cited from earlier work
# [6] = system: PI-PLC heart rep; experiment: Inhibition of PI-PLC in hearts under reperfusion conditions; set-up: species or system rat
# Procedure: as §1, §2
# Mass of Ins(1,4,5)P3 was measured using a competitive binding assay (Amersham TRK 1000) essentially as described previously (26). […]
# [7] = system: inositol phosphate accumulation in heart tissue; experiment: Inositol phosphate accumulation in healthy (normoxic) heart tissue; set-up: species or system rat; settings: healthy heart tissue
# Procedure: as §1, §3, §4
# [8] = system: PI-PLC kidney me; settings: membrane enzyme; from the literature (35); cited from earlier work
# [9] = system: Ins(1,4,5)P3 release; experiment: Thrombin-stimulated release of Ins(1,4,5)P3 in heart tissue
# [10] = hearts from reserpinized rats, no thrombin
# [11] = 0.5 mM, 2 min reperfusion after 20 min global ischaemia
# [12] = 5 mM, 2 min reperfusion after 20 min global ischaemia
# [13] = 25 μg/kg I.P. 48 h prior to experimentation
# [14] = thrombin 2 U/ml in perfusate, reserpinized hearts
compound,measurement,setting,value
NC[C@H](O)c1ccc(O)c(O)c1 [noradrenaline],"release of [3H]-labelled Ins(1,4,5)P3 on reperfusion","[1]; 10^-4 M perfusion, reserpinized animals",reinstated
COc1cc2nc(N3CCN(C(=O)c4ccco4)CC3)nc(N)c2cc1OC [prazosin],2 minute reperfusion inositol phosphate response,[1]; 10 μM,inhibited
same,redistribution of [3H]-labelled inositol phosphates under ischaemic conditions,"[1]; global ischaemia, α1 adrenoceptor blockade",unaffected
COC(=O)[C@H]1[C@H]2C[C@@H]3c4[nH]c5cc(OC)ccc5c4CCN3C[C@H]2C[C@@H](OC(=O)c2cc(OC)c(OC)c(OC)c2)[C@@H]1OC [reserpine],VF%,[2]; [10],0%
same,VT%,[2]; [10],44%
same,rapid accumulation of inositol phosphates at 2 minutes post-ischaemic reperfusion,[1]; prior reserpine treatment (5 mg/kg I.P. 18 hrs),prevented
NCCCNCCCCNCCCN [spermine],"inhibition of reperfusion-induced Ins(1,4,5)P3 release",[3],inhibitory
same,"Ins(1,4,5)P3 mass",[3]; [11],182 + 4 pmol/mg protein
same,"Ins(1,4,5)P3 mass",[3]; [12],160 ± 9 pmol/mg protein
same,effect on reperfusion arrhythmias,[4],inhibited
same,Reperfusion-induced arrhythmias VF % incidence,[4]; 0.5 mM,36%
same,Reperfusion-induced arrhythmias VT % incidence,[4]; 0.5 mM,63%
same,Reperfusion-induced arrhythmias VF % incidence,[4]; 5 mM,20%
same,Reperfusion-induced arrhythmias VT % incidence,[4]; 5 mM,30%
CN[C@@H]1C[C@H]2O[C@@](C)([C@@H]1OC)n1c3ccccc3c3c4c(c5c6ccccc6n2c5c31)C(=O)NC4 [staurosporine],percentage incidence of reperfusion-induced arrhythmias vs untreated controls,[4]; 10^-7 M,did not significantly alter
same,Reperfusion-induced arrhythmias VF % incidence,[4]; .1 μM,69%
same,Reperfusion-induced arrhythmias VT % incidence,[4]; .1 μM,83%
Pertussis toxin [PTX],"Ins(1,4,5)P3 mass",[3]; [13],128 ± 28 pmol/mg protein
same,Reperfusion-induced arrhythmias VF % incidence,[4]; [13],10%
same,Reperfusion-induced arrhythmias VT % incidence,[4]; [13],40%
neomycin,EC50,[5],30 µM
same,"Ins(1,4,5)P3 mass","[3]; 0.05 mM, 2 min reperfusion after 20 min global ischaemia, mean±SEM, 4 hearts",184 ± 7 pmol/mg protein
same,"Ins(1,4,5)P3 mass",[3]; [11],121 ± 11 pmol/mg protein
same,"Ins(1,4,5)P3 mass",[3]; [12],104 ± 12 pmol/mg protein
same,rats showing both severe VT and VF throughout reperfusion,[4]; 0.05 mM,6 out of 8
same,Reperfusion-induced arrhythmias VF % incidence,[4]; 0.05 mM,70%
same,Reperfusion-induced arrhythmias VT % incidence,[4]; 0.05 mM,75%
same,rats exhibiting VT or VF on reperfusion,[4]; 0.5 mM,none of the 10 rats
same,heart rate and ventricular pressure,"[4]; 0.5 mM, after 10 minute incubation prior to occlusion",not significantly differing from control
same,Reperfusion-induced arrhythmias VF % incidence,[4]; 0.5 mM,0%
same,Reperfusion-induced arrhythmias VT % incidence,[4]; 0.5 mM,0%
same,Reperfusion-induced arrhythmias VF % incidence,[4]; 5 mM,0%
same,Reperfusion-induced arrhythmias VT % incidence,[4]; 5 mM,0%
same,EC50,[6],400 µM
same,effect on accumulations of Inositol phosphate1 and Inositol phosphate2,[7]; 5 mM,without effect
same,"reduction in accumulation of [3H]Ins(1,4,5)P3",[7]; 5 mM,20%
same,effect on inositol phosphate accumulation,[7]; concentrations lower than 5 mM,ineffective
same,inhibition of accumulation of [3H]-labelled inositol phosphates,"[1]; 0.05 mM, added 10 min prior to ischaemia, 2 min reperfusion",did not significantly inhibit
same,average inhibition of [3H]-labelled inositol phosphate accumulation,[1]; 0.5 mM,45%
same,average inhibition of [3H]-labelled inositol phosphate accumulation,[1]; 5 mM,55%
same,increase in sensitivity of myocardial tissue to neomycin during post-ischaemic reperfusion,[1]; reperfusion vs healthy heart,more than 10 fold
same,EC50,[8],200 µM
thrombin,"release of Ins(1,4,5)P3 in heart tissue",[9],directly stimulates release
same,reperfusion arrhythmias,"[2]; thrombin 2 U/ml added to perfusate, reserpinized hearts",high incidence
same,VF%,[2]; [14],67%
same,VT%,[2]; [14],89%
